Assay results as given in patent US6355616B1, “Derivative compounds derived from or based on bactericidal/permeability-increasing protein” (priority 1999, dated 2002).

Test system: MDCK cells
Test: In vitro oral absorption screening, transepithelial transport across MDCK cell monolayers
Format: in vitro ADME, canine
Procedure: For these experiments, peptide-based constructs are screened for potential oral absorption in in vitro screening assays using MDCK and/or CACO-2 cells. Briefly, cultured monolayers of Madin-Derby canine kidney epithelial (MDCK) cells (ATCC Accession No. CCL-34) and/or CACO-2 (Human colon carcinoma) cells [Audus, K. L., et al. Phar. Res., 7:435-451 (1990) are grown upon collagen-coated, permeable-filter supports (Becton Dickinson, Mountain View, Calif.). The cells are grown to confluency and allowed to differentiate (e.g., about 3 days for MDCK cells or about 21 days for CACO-2 cells). The integrity of the monolayers is determined by measuring the transepithelial resistance. The cells are incubated with a peptide-based construct on the apical side for 2.5 hours in MDCK or CACO-2 screening. The transepithelial transport of the construct is measured by quantitative HPLC analysis of the incubation media on the basolateral side of the cells (forward transport). Radiolabelled mannitol and/or cortisone are used as positive controls. In addition, the efflux of the construct is measured by quantitative HLPC analysis of the incubation media on the apical side of the cells. This follows incubation of the cells with construct on the basolateral side for 2.5 hours. […]
Following the days post seeding, the cells are ready for transport experiments. […]
Apical control wells containing 1.5 mL TM with tritiated mannitol (^3H-mannitol, 1 μCi/mL; Dupont NEN Research Products, #NET-101, Boston, Mass.) are analyzed separately for counts per minute (cpm) of tritium to test the integrity of the MDCK cell monolayers. […]

SMILES: CC[C@@H](C)[C@@H](NC(=O)[C@@H](CC(C)C)NC(=O)[C@@H](Cc1c[nH]c2ccccc12)NC(=O)[C@@H](CCCCN)NC(=O)c1ccccc1O)C(=O)N[C@H](CCC(N)=O)C(=O)N[C@H](CC(C)C)C(=O)N[C@H](Cc1ccccc1)C(=O)N[C@H](Cc1c[nH]cn1)C(=O)N[C@H](CCCCN)C(=O)N[C@H](CCCCN)C(N)=O [XMP.560]
- cell absorption in MDCK cell screening assays: 2%
- In Vitro Oral Availablity Screening (%) Forward (apical to basolateral, 2.5 hours, donor ~100 μg/mL): ≧2%
- In Vitro Oral Availablity Screening (%) Efflux (basolateral to apical, 2.5 hours, donor ~100 μg/mL): ≧2%
